Test results taken from patent US20220323406A1, “METHODS AND COMPOSITIONS FOR DIFFERENTIATING STEM CELLS” (Massachusetts Institute of Technology, priority 2019, published 2022).
Entries after “also recorded” stand apart in the source; their conditions may differ.

Assays:
[1] = test system: ENR+CD organoids (ISC to Paneth cell differentiation); experiment: Primary screen: CCh-stimulated lysozyme secretion LYZ.S, 2.5-D 384-well ENR+CD organoid differentiation; assay type: cell-based, mouse; details: for Dose.FC.LYZ.S: primary screen
Excerpt: (§1) High-throughput screening.

[2] = test system: ENR+CD organoids (ISC to Paneth cell differentiation); experiment: Primary screen: basal (non-stimulated) lysozyme secretion LYZ.NS, 2.5-D 384-well ENR+CD organoid differentiation; assay type: cell-based, mouse; details: for Z.LYZ.NS (standard z score) / Dose.FC.LYZ.NS (log2 fold change): primary screen
Excerpt: as §1

ENR+CD organoids = experiment: Primary screen: ATP (CellTiter-Glo 3D, CTG) cell number/viability, 2.5-D 384-well ENR+CD organoids; details: primary screen;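 also: compounds given at plating and again on day 3 over a 6-day differentiation from ENR+CV stem-cell-enriched precursors, ATP measured on day 6, plate median as control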

| Compound | Z.LYZ.NS (standard z score) ([2]; dose 0.40 uM) | Z.LYZ.NS (standard z score) ([2]; dose 2.00 uM) | Z.LYZ.NS (standard z score) ([2]; dose 10.00 uM) | Z.CTG (standard z score) (ENR+CD organoids; dose 0.08 uM) | Z.CTG (standard z score) (ENR+CD organoids; dose 0.40 uM) | Z.CTG (standard z score) (ENR+CD organoids; dose 2.00 uM) | Z.CTG (standard z score) (ENR+CD organoids; dose 10.00 uM) | other results |
| --- | --- | --- | --- | --- | --- | --- | --- | --- |
| C[N+](C)(C)CCOC(N)=O.[Cl-] [CCh, carbamoylcholine chloride, reference compound] | – | – | – | – | – | – | – | secreted LYZ in LYZ.S assay, controls subsequently stimulated with CCh vs non-stimulated ([1]; 10 uM CCh, adj. p<0.05): showed significant differences; also recorded: significant increase in secreted LYZ; secreted LYZ in LYZ.NS assay, CCh-stimulated vs non-stimulated ENR+CD controls ([2]; 10 uM CCh, adj. p<0.0001): significantly greater |
| CC1=C(/C=C/C(C)=C/C=C/C(C)=C\C(=O)O)C(C)(C)CCC1 [Isotretinoin] | 0.407 | 0.578 | 0.718 | – | – | – | – | – |
| O=c1cc(-c2cccc3c2Sc2ccccc2S3)oc(N2CCOCC2)c1 [KU-55933 (ATM Kinase Inhibitor)] | – | – | – | 1.251 | 1.140 | 1.317 | 1.293 | – |
| CNC(=O)c1cc(Oc2ccc(NC(=O)Nc3cc(C(C)(C)C)nn3-c3ccc4ncccc4c3)c(F)c2)ccn1 [Rebastinib, reference compound] | – | – | – | – | – | – | – | primary screen hit call (SSMD and z-scored FC cutoffs in both LYZ assays) ([2]; LYZ.NS and LYZ.S, 0.08-10 uM, 6 days ENR+CD): excluded from the hit list due to underperformance on all three assays compared to Bosutinib |
| C=CC(=O)Nc1cccc(Oc2nc(Nc3ccc(N4CCN(C)CC4)cc3OC)ncc2Cl)c1 [WZ4002] | – | – | – | 0.748 | 0.196 | 0.360 | −2.248 | Dose.FC.CTG (ENR+CD organoids; dose 0.08 uM): 0.313 log2 fold change; Dose.FC.CTG (ENR+CD organoids; dose 0.40 uM): 0.082 log2 fold change; Dose.FC.CTG (ENR+CD organoids; dose 2.00 uM): 0.151 log2 fold change; Dose.FC.CTG (ENR+CD organoids; dose 10.00 uM): −0.941 log2 fold change; Dose.FC.LYZ.S ([1]; dose 0.08 uM): 0.114 log2 fold change; Dose.FC.LYZ.S ([1]; dose 0.40 uM): 0.046 log2 fold change; Dose.FC.LYZ.S ([1]; dose 2.00 uM): −0.109 log2 fold change; Dose.FC.LYZ.S ([1]; dose 10.00 uM): −0.319 log2 fold change |
| KX2-391 | −2.546 | −2.188 | −2.494 | −1.796 | −2.989 | −4.737 | −3.377 | Dose.FC.LYZ.NS (log2 fold change) ([2]; dose 0.08 uM): −0.283; Z.LYZ.NS (standard z score) ([2]; dose 0.08 uM): −2.468; Dose.FC.LYZ.NS (log2 fold change) ([2]; dose 2.00 uM): −0.251; Dose.FC.LYZ.NS (log2 fold change) ([2]; dose 10.00 uM): −0.286 |
